pEC50: −log10 of the molar value.

The assay deals with T1, S1P5 receptors (Homo sapiens, UniProt Q9H228).
T1 construct: expressed in transfected cells; host or cells: CHO cells (membranes)
T1 sequence (Q9H228 whole entry): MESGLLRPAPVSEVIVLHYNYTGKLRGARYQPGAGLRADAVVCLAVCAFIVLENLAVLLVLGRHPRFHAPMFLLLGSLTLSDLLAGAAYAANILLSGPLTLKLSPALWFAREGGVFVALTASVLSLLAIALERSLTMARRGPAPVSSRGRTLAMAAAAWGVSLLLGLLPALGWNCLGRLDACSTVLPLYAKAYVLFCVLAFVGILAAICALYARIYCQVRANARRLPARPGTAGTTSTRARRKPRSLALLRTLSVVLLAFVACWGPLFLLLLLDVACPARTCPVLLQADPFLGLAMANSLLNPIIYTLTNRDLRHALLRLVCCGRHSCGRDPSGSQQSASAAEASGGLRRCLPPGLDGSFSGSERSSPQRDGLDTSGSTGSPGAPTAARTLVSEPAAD
As to the kind of experiment: [35S]-GTPγS binding assay on CHO-S1P5 membranes (S1P5 agonism). The assay is classed as biochemical. Conditions: membranes of CHO cells expressing recombinant S1P5; measure of S1P5 agonism. As to the method: CHO cells expressing recombinant S1P5 receptors were cultured in 500 cm^2 culture trays and, once confluent, rinsed and detached with cell-lifting buffer (10 mM HEPES, 154 mM NaCl, 6.85 mM EDTA, pH 7.4). Cells were then pelleted by centrifugation, resuspended, and homogenized in membrane preparation buffer (10 mM HEPES and 10 mM EDTA, pH 7.4) using a Polytron PT 1200E homogenizer (Kinematica, Luzern, Switzerland). Cellular proteins were pelleted by centrifugation at 48,000×g at 4° C. for 30 minutes. The resulting supernatant was discarded, and the pellet was re-suspended again in membrane preparation buffer, homogenized for a second time, and then centrifuged again as described above. The final cellular protein pellet was suspended in ice cold resuspension buffer (10 mM HEPES and 0.1 mM EDTA, pH 7.4), divided into aliquots, and stored at −80° C. until use.
Functional binding assays for [^35S]-GTPγS were performed in 96-well non-binding surface plates with a final volume of 200 μL. The test compounds were serially diluted in DMSO and added to assay plates using a Tecan D300E digital printer with a total volume of 0.4 μL. The control sphingosine-1-phosphate (SIP) was prepared separately by preparing a 400 µM stock solution from a 100 nmol pellet of S1P in 10 mM Na2CO3 with 2% β-cyclodextrin. The serial dilution of S1P was done using complete assay buffer (20 mM HEPES, 10 mM MgCl2, 100 mM NaCl, 1 mM EDTA, 0.1% fatty acid free bovine serum albumin (BSA), and 30 μg/mL saponin, pH 7.4) and transferred to wells already containing 0.4 μL DMSO. All the wells were then loaded to a total volume of 40 μL of complete assay buffer, except the non-specific binding (NSB) wells. For NSB wells, 40 μL/well of 50 μM GTPγS (Sigma Aldrich, cat #G8634, St. Louis, MO) was added to wells containing 0.4 μL of DMSO. The assay was started by the addition of 120 μL/well of CHO-SIP receptor membrane solution containing 40 μg/mL of membrane protein, 16.67 μM guanosine diphosphate (GDP; Sigma Aldrich, cat #G7127, St. Louis, MO), and 2.5 mg/mL of WGA PVT SPA beads in complete buffer. Assay plates were then sealed and incubated at room temperature with gentle agitation for 30 minutes. Next, 40 μL/well of 1 nM of [^35S]-GTPγS (PerkinElmer, cat #NEG030X^250UC, Waltham, MA) in basic assay buffer (20 mM HEPES, 10 mM MgCl2, 100 mM NaCl, and 1 mM EDTA, pH7.4) was added to the assay plates to yield a final concentration of […] and the plates were further incubated for 40 minutes at room temperature with gentle agitation. The assay was terminated by centrifugation of the plates at 1000 rpm for 3 minutes using an Eppendorf 5810R centrifuge (Eppendorf, Hamburg, Germany) and G protein bound radioactivity was quantitated using a MicroBeta2 microplate scintillation counter (PerkinElmer, Waltham, MA). As G protein bound radioactivity directly correlates to receptor activation and coupling to the G protein, this assay is a measure of S1P5 agonism.
In general terms: GTPγS is a poorly hydrolysed GTP analogue; its binding reports G protein activation.
For `Cc1cc2c(c(C)c1-c1ccc(C3CC3)c(Cl)c1)CCC2N1CC(C)(O)C1` (single isomer, unassigned) [Compound 25b, 1-(5-(3-chloro-4-cyclopropylphenyl)-4,6-dimethyl-2,3-dihydro-1H-inden-1-yl)-3-methylazetidin-3-ol], the negative logarithm of the EC50 (pEC50) is 8.00 to 9.00.
`Cc1c(C#Cc2cccc(F)c2)ccc2c1CCC2N1CC(C)(O)C1` (single isomer, unassigned) [Compound 17b, 1-[5-[2-(3-fluorophenyl)ethynyl]-4-methyl-indan-1-yl]-3-methyl-azetidin-3-ol]: the negative-log EC50 (pEC50) is 7.00 to 8.00.
On to `Cc1cc(-c2ccc(C3CC3)c(Cl)c2)c(C)c2c1C(N1CC(C)(O)C1)CC2` (single isomer, unassigned) [Compound 26b, 1-[5-(3-chloro-4-cyclopropyl-phenyl)-4,7-dimethyl-indan-1-yl]-3-methyl-azetidin-3-ol], for which the pEC50 is 8.00 to 9.00.
In the case of `Cc1c(-c2ccc(C3CC3)c(Cl)c2)cc2c(c1C)C(N1CC(C)(O)C1)CC2` (single isomer, unassigned) [Compound 27b, 1-(5-(3-chloro-4-cyclopropylphenyl)-6,7-dimethyl-2,3-dihydro-1H-inden-1-yl)-3-methylazetidin-3-ol] it was 7.00 to 8.00; in that of `CC1(O)CCN(C2CCc3cc(C4CN(c5c(Cl)cccc5Cl)C4)ccc32)CC1` (stereo not shown) [Compound 8, 1-(5-(1-(2,6-dichlorophenyl)azetidin-3-yl)-2,3-dihydro-1H-inden-1-yl)-4-methyl-piperidin-4-ol], 5.00 to 6.00.
The value for `Cc1cc(C2CN(c3c(Cl)cccc3Cl)C2)cc(F)c1CN1CC(C)(O)C1` [Compound 48, 1-(4-(1-(2,6-dichlorophenyl)azetidin-3-yl)-2-fluoro-6-methylbenzyl)-3-methylazetidin-3-ol] was 7.00 to 8.00; that for `Cc1cc(N2CC(c3c(Cl)cccc3Cl)C2)cc(C)c1CN1CCC(C)(O)CC1` [Compound 36, 1-(4-(3-(2,6-dichlorophenyl)azetidin-1-yl)-2,6-dimethylbenzyl)-4-methylpiperidin-4-ol] was 6.00 to 7.00; that for `Cc1cc(C2CN(c3c(Cl)cccc3Cl)C2)cc(C)c1CN1CC(O)(CF)C1` [Compound 39, 1-(4-(1-(2,6-dichlorophenyl)azetidin-3-yl)-2,6-dimethylbenzyl)-3-(fluoromethyl) azetidin-3-ol] was 6.00 to 7.00.
In the case of `CC1(O)CN(Cc2ccc(C3CN(c4c(Cl)cccc4Cl)C3)nc2)C1` [Compound 58, 1-((6-(1-(2,6-dichlorophenyl)azetidin-3-yl)pyridin-3-yl)methyl)-3-methylazetidin-3-ol] it was 5.00 to 6.00.
As for `Cc1c(-c2ccc(C3CC3)c(Cl)c2)ccc2c1CCC2N1CC(C)(O)C1` (single isomer, unassigned) [Compound 16a, 1-[5-(3-chloro-4-cyclopropyl-phenyl)-4-methyl-indan-1-yl]-3-methyl-azetidin-3-ol], the pEC50 was 8.00 to 9.00.
In the case of `Cc1c(OCc2c(Cl)cccc2Cl)ccc2c1CCC2NCC(C)(C)O` (single isomer, unassigned) [Compound 20b, 1-((5-((2,6-dichlorobenzyl)oxy)-4-methyl-2,3-dihydro-1H-inden-1-yl)amino)-2-methylpropan-2-ol] it was 6.00 to 7.00; in that of `Cc1cc2c(cc1C#Cc1cccc(F)c1)CCC2N1CC(C)(O)C1` (single isomer, unassigned) [Compound 22a, 1-[5-[2-(3-fluorophenyl)ethynyl]-6-methyl-indan-1-yl]-3-methyl-azetidin-3-ol], 7.00 to 8.00.
Take `Cc1cc2c(cc1CCc1c(Cl)cccc1Cl)CCC2N1CC(C)(O)C1` (single isomer, unassigned) [Compound 23a, 1-[5-[2-(2,6-dichlorophenyl)ethyl]-6-methyl-indan-1-yl]-3-methyl-azetidin-3-ol]: the pEC50 is 7.00 to 8.00.
Take `Cc1cc2c(c(C)c1-c1ccc(C3CC3)c(Cl)c1)CCC2N1CC(C)(O)C1` (single isomer, unassigned) [Compound 25a, 1-(5-(3-chloro-4-cyclopropylphenyl)-4,6-dimethyl-2,3-dihydro-1H-inden-1-yl)-3-methylazetidin-3-ol]: the negative-log EC50 (pEC50) was 8.00 to 9.00.
Regarding `CC1(O)CCN(Cc2ccc(N3CC(c4c(Cl)cccc4Cl)C3)cc2)CC1` [Compound 32, 1-(4-(3-(2,6-dichlorophenyl)azetidin-1-yl)benzyl)-4-methylpiperidin-4-ol], the negative-log EC50 (pEC50) is 5.00 to 6.00.
The value for `Cc1cc(CN2CC(C)(O)C2)cc(C)c1C1CN(c2c(Cl)cccc2Cl)C1` [Compound 57, 1-(4-(1-(2,6-dichlorophenyl)azetidin-3-yl)-3,5-dimethylbenzyl)-3-methylazetidin-3-ol] was 7.00 to 8.00; that for `Cc1c(C#Cc2cccc(F)c2)ccc2c1CCC2N1CC(C)(O)C1` (single isomer, unassigned) [Compound 17a, 1-[5-[2-(3-fluorophenyl)ethynyl]-4-methyl-indan-1-yl]-3-methyl-azetidin-3-ol] was 7.00 to 8.00.
Regarding `Cc1cc(C2CN(c3c(F)cccc3F)C2)cc(C)c1CN1CC(C)(O)C1` [Compound 42, 1-(4-(1-(2,6-difluorophenyl)azetidin-3-yl)-2,6-dimethylbenzyl)-3-methylazetidin-3-ol], the pEC50 was 7.00 to 8.00.
In the case of `Cc1cc(C#Cc2cccc(F)c2)cc2c1C(N1CC(C)(O)C1)CC2` (single isomer, unassigned) [Compound 13a, 1-[5-[2-(3-fluorophenyl)ethynyl]-7-methyl-indan-1-yl]-3-methyl-azetidin-3-ol], the pEC50 was 7.00 to 8.00.
The value for `Cc1cc(-c2ccc(C3CC3)c(Cl)c2)cc2c1C(N1CC(C)(O)C1)CC2` (single isomer, unassigned) [Compound 10b, 1-[5-(3-chloro-4-cyclopropyl-phenyl)-7-methyl-indan-1-yl]-3-methyl-azetidin-3-ol] was 8.00 to 9.00; that for `Cc1c(OCc2c(Cl)cccc2Cl)ccc2c1CCC2NCC(C)(C)O` (single isomer, unassigned) [Compound 20a, 1-((5-((2,6-dichlorobenzyl)oxy)-4-methyl-2,3-dihydro-1H-inden-1-yl)amino)-2-methylpropan-2-ol] was 7.00 to 8.00.
In the case of `Cc1cc2c(cc1C#Cc1cccc(F)c1)CCC2N1CC(C)(O)C1` (single isomer, unassigned) [Compound 22b, 1-[5-[2-(3-fluorophenyl)ethynyl]-6-methyl-indan-1-yl]-3-methyl-azetidin-3-ol] it was 7.00 to 8.00; in that of `Cc1cc(-c2ccc(C3CC3)c(Cl)c2)cc2c1C(N1CCC(C)(O)CC1)CC2` (stereo not shown) [Compound 11, 1-(5-(3-chloro-4-cyclopropylphenyl)-7-methyl-2,3-dihydro-1H-inden-1-yl)-4-methylpiperidin-4-ol], 5.00 to 6.00.
For the compound `Cc1cc(C2CN(c3c(Cl)cccc3Cl)C2)cc(C2CC2)c1CN1CC(C)(O)C1` [Compound 54, 1-(2-cyclopropyl-4-(1-(2,6-dichlorophenyl)azetidin-3-yl)-6-methylbenzyl)-3-methylazetidin-3-ol], the pEC50 was 7.00 to 8.00.
Regarding `Cc1cc(CCc2c(Cl)cccc2Cl)cc2c1C(N1CC(C)(O)C1)CC2` (single isomer, unassigned) [Compound 14b, 1-[5-[2-(2,6-dichlorophenyl)ethyl]-7-methyl-indan-1-yl]-3-methyl-azetidin-3-ol], the negative-log EC50 (pEC50) was 8.00 to 9.00.
Regarding `CC1(O)CCN(C2CCc3cc(-c4ccc(C5CC5)c(Cl)c4)ccc32)CC1` (stereo not shown) [Compound 6, 1-(5-(3-chloro-4-cyclopropylphenyl)-2,3-dihydro-1H-inden-1-yl)-4-methylpiperidin-4-ol], the pEC50 was 5.00 to 6.00.
Consider `Cc1cc(C2CN(c3cccc(F)c3)C2)cc(C)c1CN1CC(C)(O)C1` [Compound 45, 1-(4-(1-(3-fluorophenyl)azetidin-3-yl)-2,6-dimethylbenzyl)-3-methylazetidin-3-ol], for which the negative logarithm of the EC50 (pEC50) was 5.00 to 6.00.
In the case of `Cc1cc(OCc2c(Cl)cccc2Cl)cc2c1C(N1CC(C)(O)C1)CC2` (single isomer, unassigned) [Compound 15b, 1-[5-[(2,6-dichlorophenyl)methoxy]-7-methyl-indan-1-yl]-3-methyl-azetidin-3-ol] it was 8.00 to 9.00.

As a reminder, the pEC50 is −log10 of the EC50, conventionally taken in molar units.

For the origin of these results see patent US20260022094A1, “Compounds for the Treatment of Neurodegenerative Diseases” (Celgene Corporation, priority 2022, published 2026).
